# Experimental data as given in PubChem BioAssay (NCI).
#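 Values below derive from 48-hour exposures of cells grown in 96-well plates, with endpoints linearly interpolated between the two concentrations bracketing the appropriate inhibition level. GI50: concentration for 50% inhibition of growth. The concentration for full growth arrest is given as TGI.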
# How the values were obtained:
# Experiment in all cases: NCI tumour cell line growth inhibition, 48 h
# [1] = test system: 786-0 renal
# [2] = test system: A498 renal
# [3] = test system: A549 NSCLC
# [4] = test system: ACHN renal
# [5] = test system: BT-549 breast
# [6] = test system: CAKI-1 renal
# [7] = test system: CCRF-CEM leukemia
# [8] = test system: COLO 205 colon
# [9] = test system: DU-145 prostate
# [10] = test system: EKVX NSCLC
# [11] = test system: HCC-2998 colon
# [12] = test system: HCT-116 colon
# [13] = test system: HCT-15 colon
# [14] = test system: HL-60(TB) leukemia
# [15] = test system: HOP-62 NSCLC
# [16] = test system: HOP-92 NSCLC
# [17] = test system: HS 578T breast
# [18] = test system: HT29 colon
# [19] = test system: IGROV1 ovarian
# [20] = test system: K-562 leukemia
# [21] = test system: KM12 colon
# [22] = test system: LOX IMVI melanoma
# [23] = test system: M14 melanoma
# [24] = test system: MALME-3M melanoma
# [25] = test system: MCF7 breast
# [26] = test system: MDA-MB-231 breast
# [27] = test system: MDA-MB-435
# [28] = test system: MOLT-4 leukemia
# [29] = test system: NCI-H226 lung
# [30] = test system: NCI-H23 lung
# [31] = test system: NCI-H460 lung
# [32] = test system: NCI-H522 lung
# [33] = test system: NCI/ADR-RES ovarian
# [34] = test system: OVCAR-3 ovarian
# [35] = test system: OVCAR-4 ovarian
# [36] = test system: OVCAR-5 ovarian
# [37] = test system: OVCAR-8 ovarian
# [38] = test system: PC-3 prostate
# [39] = test system: RPMI-8226 leukemia
# [40] = test system: RXF 393 renal
# [41] = test system: SF-268 CNS
# [42] = test system: SF-295 CNS
# [43] = test system: SF-539 CNS
# [44] = test system: SK-MEL-2 melanoma
# [45] = test system: SK-MEL-28 melanoma
# [46] = test system: SK-MEL-5 melanoma
# [47] = test system: SK-OV-3 ovarian
# [48] = test system: SN12C renal
# [49] = test system: SNB-19 CNS
# [50] = test system: SNB-75 CNS
# [51] = test system: SW-620 colon
# [52] = test system: T-47D breast
# [53] = test system: TK-10 renal
# [54] = test system: U251 CNS
# [55] = test system: UACC-257 melanoma
# [56] = test system: UACC-62 melanoma
# [57] = test system: UO-31 renal
smiles,measurement,setting,value
O=C(/C=C/C12c3ccccc3C(c3ccccc31)C1C(=O)NC(=O)C12)c1ccco1 (centres undefined),GI50,[1],3.28 µM
same,TGI,[1],10.8 µM
same,GI50,[2],2.42 µM
same,TGI,[2],6.05 µM
same,GI50,[3],3.25 µM
same,TGI,[3],10.1 µM
same,GI50,[4],3.63 µM
same,TGI,[4],12.3 µM
same,GI50,[5],2.89 µM
same,TGI,[5],7.53 µM
same,GI50,[6],3.74 µM
same,TGI,[6],14 µM
same,GI50,[7],1.24 µM
same,TGI,[7],9.57 µM
same,GI50,[8],3.27 µM
same,TGI,[8],9.32 µM
same,GI50,[9],2.98 µM
same,TGI,[9],11.9 µM
same,GI50,[10],3.16 µM
same,TGI,[10],11 µM
same,GI50,[11],1.79 µM
same,TGI,[11],3.52 µM
same,GI50,[12],1.69 µM
same,TGI,[12],3.74 µM
same,GI50,[13],2.14 µM
same,TGI,[13],5.43 µM
same,GI50,[14],1.58 µM
same,TGI,[14],4.89 µM
same,GI50,[15],2.7 µM
same,TGI,[15],6.99 µM
same,GI50,[16],1.74 µM
same,TGI,[16],4.54 µM
same,GI50,[17],4.16 µM
same,TGI,[17],30.2 µM
same,GI50,[18],2.28 µM
same,TGI,[18],5.06 µM
same,GI50,[19],3.24 µM
same,TGI,[19],9.73 µM
same,GI50,[20],2.19 µM
same,TGI,[20],12.5 µM
same,GI50,[21],2.36 µM
same,TGI,[21],5.99 µM
same,GI50,[22],1.85 µM
same,TGI,[22],3.76 µM
same,GI50,[23],3.1 µM
same,TGI,[23],11.2 µM
same,GI50,[24],2.35 µM
same,TGI,[24],6.72 µM
same,GI50,[25],2.49 µM
same,TGI,[25],12.6 µM
same,GI50,[26],3.85 µM
same,TGI,[26],15.4 µM
same,GI50,[27],2.35 µM
same,TGI,[27],5.84 µM
same,GI50,[28],2.16 µM
same,TGI,[28],7.63 µM
same,GI50,[29],3.03 µM
same,TGI,[29],9.85 µM
same,GI50,[30],2.22 µM
same,TGI,[30],4.83 µM
same,GI50,[31],1.8 µM
same,TGI,[31],3.98 µM
same,GI50,[32],1.84 µM
same,TGI,[32],3.75 µM
same,GI50,[33],2.38 µM
same,TGI,[33],6.42 µM
same,GI50,[34],2.47 µM
same,TGI,[34],5.8 µM
same,GI50,[35],3.45 µM
same,TGI,[35],13.5 µM
same,GI50,[36],3.15 µM
same,TGI,[36],10.7 µM
same,GI50,[37],3.12 µM
same,TGI,[37],12.5 µM
same,GI50,[38],1.74 µM
same,TGI,[38],5 µM
same,GI50,[39],1.1 µM
same,TGI,[39],4.21 µM
same,GI50,[40],1.79 µM
same,TGI,[40],3.48 µM
same,GI50,[41],2.72 µM
same,TGI,[41],9.1 µM
same,GI50,[42],3.33 µM
same,TGI,[42],11.6 µM
same,GI50,[43],2.04 µM
same,TGI,[43],4.16 µM
same,GI50,[44],2.19 µM
same,TGI,[44],4.44 µM
same,GI50,[45],2.37 µM
same,TGI,[45],4.73 µM
same,GI50,[46],1.77 µM
same,TGI,[46],3.28 µM
same,GI50,[47],4.01 µM
same,TGI,[47],12.8 µM
same,GI50,[48],3.21 µM
same,TGI,[48],11.3 µM
same,GI50,[49],2.19 µM
same,TGI,[49],5.17 µM
same,GI50,[50],3.44 µM
same,TGI,[50],12.2 µM
same,GI50,[51],2.59 µM
same,TGI,[51],7.22 µM
same,GI50,[52],3.43 µM
same,TGI,[52],20.3 µM
same,GI50,[53],3.7 µM
same,TGI,[53],10.9 µM
same,GI50,[54],2.01 µM
same,TGI,[54],4.36 µM
same,GI50,[55],4.4 µM
same,TGI,[55],15.6 µM
same,GI50,[56],2.16 µM
same,TGI,[56],4.9 µM
same,GI50,[57],2.19 µM
same,TGI,[57],7.49 µM
